Assays:
LTB4 = test: Reverse passive Arthus pleurisy assay, inflammatory mediator release: LTB4; format: in vivo, rat (male Lewis); conditions: 25 mg/kg p.o., 3 hours before challenge
[1] = tested on: 5-lipoxygenase in human whole blood; test: Inhibition of 5-lipoxygenase in human whole blood (LTB4); format: cell-based
Outline: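 Donor whole blood was preincubated with compound (0.1% final DMSO) 10 min at 37° C, then stimulated with 30 μM A23187 for 20 min at 27° C and stopped with EGTA on ice. Plasma LTB4 quantified by RIA or ELISA as ng/10^6 neutrophils; effects given as percent change from control.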

Structure (SMILES): CC(C(=O)N(C)O)c1ccc(-c2ccc(OCc3csc(-c4ccccc4)n3)cc2)cc1 (stereo not drawn) [Example 21, N-Hydroxy-N,α-dimethyl-4'-[(2-phenylthiazol-4-yl)methoxy][1,1'-biphenyl]-4-acetamide]
- % Inhibition of LTB4 Synthesis (LTB4): 8%
- IC50 [1]: 7.8 µM
- % Inhibition of LTB4 ([1]; at 25 μM): 85%

— patent US5364944A, “Substituted benzoylbenzene-, biphenyl- and 2-oxazole- alkanoic acid compounds” (American Home Products Corporation, priority 1993, dated 1994)
